Experimental data reported in ChEMBL document CHEMBL1201862, “PubChem BioAssay data set” (2004).
Activity calls are given as the source filed them.

Experiments:
[1] = biological target: T1, Calpain-2 catalytic subunit (Sus scrofa, UniProt P43367); test: pig calpain II inhibitor potency, dose response, biochemical, fluorogenic peptide substrate (AID 1420); format: functional
T1 sequence (P43367 whole entry): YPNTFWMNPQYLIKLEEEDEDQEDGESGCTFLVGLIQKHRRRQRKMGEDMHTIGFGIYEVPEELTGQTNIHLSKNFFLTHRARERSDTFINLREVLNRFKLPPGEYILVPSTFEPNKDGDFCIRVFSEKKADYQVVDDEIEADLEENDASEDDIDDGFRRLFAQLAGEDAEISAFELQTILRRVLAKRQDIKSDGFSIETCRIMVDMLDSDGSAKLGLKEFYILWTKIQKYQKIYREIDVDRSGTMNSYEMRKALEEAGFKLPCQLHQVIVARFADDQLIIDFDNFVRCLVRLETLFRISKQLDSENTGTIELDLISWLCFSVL

[2] = Luminescence Cell-Based Dose Retest to Confirm Inhibitors of Cancer Stem Cells. [Related pubchem assays (depositor defined):AID2717, AID2721]; format: functional; conditions: Homo sapiens
[3] = A Cell Based Secondary Assay To Explore Cytotoxicity of Compounds that Sensitize Mycobacterium Tuberculosis to Beta-Lactam Antibiotics.; format: functional
Protein skinhead-1 = biological target: T2, Protein skinhead-1 (Caenorhabditis elegans, UniProt P34707); format: functional
T2 sequence (P34707 whole entry): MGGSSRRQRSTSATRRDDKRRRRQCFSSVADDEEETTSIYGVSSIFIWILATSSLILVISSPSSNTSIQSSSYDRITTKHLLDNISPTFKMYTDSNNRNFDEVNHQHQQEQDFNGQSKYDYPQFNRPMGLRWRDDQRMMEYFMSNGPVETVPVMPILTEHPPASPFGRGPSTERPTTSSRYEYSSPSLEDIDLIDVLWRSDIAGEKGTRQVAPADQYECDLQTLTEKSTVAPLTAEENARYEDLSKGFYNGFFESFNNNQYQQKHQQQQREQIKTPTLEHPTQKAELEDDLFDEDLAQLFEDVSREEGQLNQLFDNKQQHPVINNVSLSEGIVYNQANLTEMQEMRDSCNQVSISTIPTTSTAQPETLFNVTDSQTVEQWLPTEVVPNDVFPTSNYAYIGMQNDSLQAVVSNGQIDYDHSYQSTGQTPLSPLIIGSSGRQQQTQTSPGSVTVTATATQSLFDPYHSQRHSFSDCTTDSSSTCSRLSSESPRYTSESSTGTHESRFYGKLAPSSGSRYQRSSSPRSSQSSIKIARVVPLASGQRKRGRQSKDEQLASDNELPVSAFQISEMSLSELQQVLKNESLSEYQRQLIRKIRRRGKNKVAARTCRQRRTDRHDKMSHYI

Estrogen receptor = biological target: T3, Estrogen receptor (Homo sapiens, UniProt P03372);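 further: potency for inhibiting coactivator peptide recruitment to the receptor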
T3 sequence (P03372 whole entry): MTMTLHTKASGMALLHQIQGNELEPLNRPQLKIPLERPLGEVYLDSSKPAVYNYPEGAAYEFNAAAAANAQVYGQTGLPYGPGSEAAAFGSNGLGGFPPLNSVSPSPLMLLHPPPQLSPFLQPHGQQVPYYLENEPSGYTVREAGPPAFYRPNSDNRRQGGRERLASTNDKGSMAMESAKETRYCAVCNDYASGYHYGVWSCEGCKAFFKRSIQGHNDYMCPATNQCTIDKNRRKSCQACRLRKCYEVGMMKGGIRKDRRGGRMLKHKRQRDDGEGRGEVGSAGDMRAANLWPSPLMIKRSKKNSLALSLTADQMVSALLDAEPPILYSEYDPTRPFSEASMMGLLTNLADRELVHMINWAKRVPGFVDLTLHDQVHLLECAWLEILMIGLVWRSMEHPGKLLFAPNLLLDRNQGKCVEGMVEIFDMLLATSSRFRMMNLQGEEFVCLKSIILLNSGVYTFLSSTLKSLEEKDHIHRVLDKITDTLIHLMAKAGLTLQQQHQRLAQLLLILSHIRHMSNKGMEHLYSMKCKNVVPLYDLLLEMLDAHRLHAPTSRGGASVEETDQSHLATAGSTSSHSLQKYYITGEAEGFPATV

[4] = microbe, parasite or virus in culture; format: functional; conditions: Mycobacterium tuberculosis
[5] = cytotoxicity toward NIH3T3 fibroblasts, dose response, counter-screen, cell-based, ATP luminescence, mouse fibroblasts (AID 2010); format: functional;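 further: cells exposed to compound for about 90 hours before reading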
[6] = inhibitors of intracellular T. cruzi replication, confirmation, NIH3T3 host cells, beta-gal luminescence (AID 2044); format: functional, cell-based;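 further: intracellular parasites grown in NIH/3T3 mouse fibroblasts as host cells; luminescent beta-galactosidase reporter signal from transgenic T. cruzi replicating inside host cells; inhibitors lower the luminescence signal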
H9c2 = test: cells; format: functional, cell-based; conditions: Rattus norvegicus, H9c2, Myocardium
[7] = growth suppression of PTEN-null colon cells, dose response, cell-based, HCT116 PTEN knockout (AID 1047); format: functional;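 further: HCT116 colon tumor cells with PTEN knocked out; cells exposed to compound for 60 hours before readout; potency for loss of cell viability measured by luminescence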
[8] = growth suppression of beta-catenin-knockout colon cells, dose response, cell-based, HCT116, human colon tumor (AID 1045); format: functional;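 further: HCT116 colon tumor cells with beta catenin knocked out; cells exposed to compound for 60 hours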
[9] = biological target: T4, Carboxy-terminal domain RNA polymerase II polypeptide A small phosphatase 1 (Homo sapiens, UniProt Q9GZU7); test: inhibitors of CTDSP1, concentration-response testing, biochemical assay, absorbance-based, actives from ultra-high-throughput screening (AID 540297); format: functional
T4 sequence (Q9GZU7 whole entry): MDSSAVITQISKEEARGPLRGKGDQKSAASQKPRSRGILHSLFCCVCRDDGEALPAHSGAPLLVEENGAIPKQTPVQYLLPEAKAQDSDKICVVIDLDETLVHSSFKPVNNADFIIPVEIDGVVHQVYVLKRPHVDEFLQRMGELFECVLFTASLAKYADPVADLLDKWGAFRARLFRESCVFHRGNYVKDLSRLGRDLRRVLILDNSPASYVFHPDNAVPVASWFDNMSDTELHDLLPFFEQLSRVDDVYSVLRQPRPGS

[10] = biological target: T5, Heat shock factor protein 1 (Mus musculus, UniProt P38532); test: inhibition of MG132-induced HSE-luciferase signal, confirmation, cell-based, NIH3T3, luminescence, dose retest (AID 2382); format: functional;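 further: NIH3T3 fibroblasts with HSF1-driven luciferase reporter stressed by proteasome inhibitor MG132; luminescence from HSF1-driven luciferase expression after 8 hours of MG132 stress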
T5 sequence (P38532 whole entry): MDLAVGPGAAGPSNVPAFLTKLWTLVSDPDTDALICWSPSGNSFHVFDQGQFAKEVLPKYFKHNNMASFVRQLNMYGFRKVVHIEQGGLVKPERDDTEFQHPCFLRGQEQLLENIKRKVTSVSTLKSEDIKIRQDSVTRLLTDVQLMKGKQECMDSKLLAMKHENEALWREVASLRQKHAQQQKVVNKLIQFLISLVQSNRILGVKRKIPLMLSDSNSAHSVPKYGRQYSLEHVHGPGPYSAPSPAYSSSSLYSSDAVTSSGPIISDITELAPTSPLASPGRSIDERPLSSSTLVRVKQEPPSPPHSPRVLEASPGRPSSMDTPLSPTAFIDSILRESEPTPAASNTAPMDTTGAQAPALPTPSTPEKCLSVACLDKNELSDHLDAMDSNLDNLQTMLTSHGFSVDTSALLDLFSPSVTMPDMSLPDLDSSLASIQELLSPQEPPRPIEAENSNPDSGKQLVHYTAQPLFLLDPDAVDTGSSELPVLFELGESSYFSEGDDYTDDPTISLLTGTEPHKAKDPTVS

INS1 = test: beta cell apoptosis inhibitors, cytokine rescue, dose response, luminescence, retest (AID 449756); format: functional, cell-based; conditions: Rattus norvegicus;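 further: cell death triggered by IL-1 beta plus TNF-alpha plus IFN-gamma mixture; protective hits raise ATP signal compared with cytokine alone wells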
[11] = biological target: T6, Microphthalmia-associated transcription factor (Homo sapiens, UniProt O75030); test: TRPM1 promoter luciferase signal decrease, dose response, MITF inhibitor project, cell-based, SK-MEL-5, cherry-picked, set 3 (AID 493073); format: functional
T6 sequence (O75030 whole entry): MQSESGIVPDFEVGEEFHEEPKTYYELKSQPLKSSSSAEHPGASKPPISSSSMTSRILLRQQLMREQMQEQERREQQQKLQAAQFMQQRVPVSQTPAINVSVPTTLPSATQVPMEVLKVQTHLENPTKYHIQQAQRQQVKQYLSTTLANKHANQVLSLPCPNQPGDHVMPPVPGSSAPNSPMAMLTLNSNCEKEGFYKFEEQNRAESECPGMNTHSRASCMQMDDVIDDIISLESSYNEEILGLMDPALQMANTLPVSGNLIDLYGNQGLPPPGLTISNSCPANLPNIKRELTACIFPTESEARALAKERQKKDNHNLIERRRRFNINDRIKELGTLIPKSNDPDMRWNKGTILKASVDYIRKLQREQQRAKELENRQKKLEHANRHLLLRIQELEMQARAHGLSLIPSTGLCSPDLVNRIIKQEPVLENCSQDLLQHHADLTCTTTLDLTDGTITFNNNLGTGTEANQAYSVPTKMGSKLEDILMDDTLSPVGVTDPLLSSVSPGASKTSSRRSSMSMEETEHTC

## CCCc1nc(SCC(=O)N2CCCc3ccccc32)c2c(=O)n(C)c(=O)n(C)c2n1
[1]
  IC50: 16.7 µM (not active)

## NC(=O)CC(NC(=O)Cc1ccc(Br)cc1)c1ccc(NC2CCCCCC2)c([N+](=O)[O-])c1 (stereo not drawn)
[2]
  AC50: 4.61 µM (active)
[3]
  CC50: > 40 µM (active)

## CCn1nc(C(=O)OCC(=O)N2c3ccccc3CC2C)c2ccccc2c1=O (stereo not drawn)
[1]
  IC50: 29.2 µM (not active)

## Cc1cc(C(F)(F)F)n2ncc(-c3ccc(F)cc3)c2n1
Protein skinhead-1
  IC50: > 100 µM (inactive)

## Cn1nnnc1SCC(=O)NC1CCCCC1
[1]
  IC50: < 0.4 µM (not active)

## Cc1ccc(CNc2nc3ccccc3n3nnnc23)cc1
Estrogen receptor
  IC50: > 50 µM (not active)

## Cc1ccc(-c2noc(C3CCCN(C(=O)c4ccc(C(C)(C)C)cc4)C3)n2)o1 (stereo not drawn)
[4]
  CC50: > 40 µM (active)

## COc1cc2cnc(-c3ccsc3)c(-c3ccc(F)cc3)c2cc1OC
[3]
  CC50: > 40 µM (active)

## Cc1ccc(S(=O)(=O)n2ccc3c(OCCOCCNCc4ccc(F)cc4)cccc32)cc1
[4]
  CC50: 13.3 µM (active)
[5]
  EC50: > 30 µM (not active)
[6]
  EC50: 0.226 µM (active)

## O=C(NC1CCCCC1)C(c1ccc2ncccc2c1)N(Cc1ccco1)C(=O)c1ccc2c(c1)OCCO2 (stereo not drawn)
[4]
  CC50: > 40 µM (active)
H9c2
  IC50: 12.6 µM (active)

## CN=C(S)N=NC1=C(O)c2cccc3cccc1c23
[3]
  CC50: 28.2 µM (active)
[7]
  EC50: 13.9 µM (active)
[8]
  EC50: 10.5 µM (active)

## COc1ccc(-c2nc(C(N)=O)c3[nH]c(=O)n(-c4cccc(Cl)c4)c3n2)cc1OC
Estrogen receptor
  IC50: 6.26 µM (active)

## COc1ccc(N2CCN(c3nc(NC(C)(C)C)nc(N4CCCCC4)n3)CC2)cc1
[1]
  IC50: 24.4 µM (not active)

## FC(F)(F)c1cccc(NCc2nnc(S)n2C2CCCCC2)c1
[1]
  IC50: 27.8 µM (not active)

## CC(=O)c1c(C)[nH]c(C(=O)COc2ccc(C#N)cc2)c1C
Estrogen receptor
  IC50: 34 µM (not active)

## CCSc1nc2ccccc2c(=O)n1CCc1ccc(OC)c(OC)c1
[3]
  CC50: > 40 µM (active)

## CCOc1ccc(NC(=O)c2cc3cc4ccc(OC)cc4nc3o2)cc1
[9]
  IC50: 6.92 µM (active)
Estrogen receptor
  IC50: 47.3 µM (not active)

## CCOc1cc(C)c(S(=O)(=O)NC2CCCCC2)cc1C
[1]
  IC50: > 50 µM (not active)
[10]
  EC50: > 195 µM (not active)

## O=C(CN1CCC(n2nnc3cc(C(F)(F)F)ccc32)CC1)NCc1cccs1
[4]
  CC50: > 40 µM (active)

## COc1cc(CNc2ccc(NC(C)=O)cc2)ccc1OCc1ccccc1C
[3]
  CC50: > 40 µM (active)

## COc1cc(CNCCO)cc(Br)c1OCc1ccccc1Cl
[3]
  CC50: 20.3 µM (active)

## O=C(c1cccc(F)c1)N1CCN(c2cccc(C(F)(F)F)c2)CC1
Protein skinhead-1
  IC50: > 100 µM (inactive)

## CCOc1ccc(Oc2ccc(-c3nnc(-c4ccccc4)o3)cc2[N+](=O)[O-])cc1
[1]
  IC50: 4.33 µM (not active)

## O=C1c2ccccc2C(=O)N1CCc1nc(-c2ccc(Cl)cc2)no1
Protein skinhead-1
  IC50: 94.6 µM (inactive)

## CCN(CC)C(=O)c1cc([N+](=O)[O-])cc2c1-c1ccc([N+](=O)[O-])cc1C2=C(C#N)C#N
[4]
  CC50: > 40 µM (active)
INS1
  AC50: 6.32 µM (active)

## Cc1cc(F)ccc1S(=O)(=O)N1CCCOC1CNC(=O)C(=O)NCc1ccc2c(c1)OCO2 (stereo not drawn)
Protein skinhead-1
  IC50: > 100 µM (inactive)

## c1ccc(-n2nnc(-c3nccs3)n2)cc1
Protein skinhead-1
  IC50: 88.2 µM (inactive)

## CCOc1ccc(NC(=O)CCN2CCN(C)CC2)cc1
Protein skinhead-1
  IC50: > 100 µM (inactive)

## COCCn1c(SCC(=O)Nc2cccc(C)c2)nnc1C(C)C
Protein skinhead-1
  IC50: > 100 µM (inactive)

## C/C(=N\NC(=N)SC1CC(=O)N(c2ccc(Cl)cc2)C1=O)c1cccs1 (stereo not drawn)
[4]
  CC50: > 40 µM (active)

## O=C(N/N=C/c1ccc([N+](=O)[O-])o1)c1ccccc1-n1cccc1
[5]
  EC50: > 60 µM (not active)
[3]
  CC50: 32.1 µM (active)
[6]
  EC50: 0.137 µM (active)
[11]
  AC50: 17.1 µM (active)
